Tested on: HCI-012 (organoid from a breast cancer xenograft)
Experiment: CTG-3D luminescence at 96 h relative to day-0 seeding control (ratio to day 0); higher = more growth / less cytotoxicity; PDxO 3D drug screen (set 2), 96 h, CTG-3D normalised to day-0 seeding control.
Conditions: 100 µM; days in culture: 214

| Structure (SMILES) | CTG-3D luminescence at 96 h |
| --- | --- |
| CCOc1ccn(-c2ccc(F)cc2)c(=O)c1C(=O)Nc1ccc(Oc2ccnc(N)c2Cl)c(F)c1 [ASLAN002] | 0.653 |
| C[C@@H](Nc1cc(F)cc(F)c1)c1cc(C(=O)N(C)C)cc2c(=O)cc(N3CCOCC3)oc12 [AZD-8186] | 0.299 |
| COc1cccc2c1C(=O)c1c(O)c3c(c(O)c1C2=O)C[C@@](O)(C(=O)CO)C[C@@H]3O[C@H]1C[C@H](N)[C@@H](O)[C@H](C)O1 [epirubicin] | -0.0053 |
| CC(=O)c1c(C)c2cnc(Nc3ccc(N4CCNCC4)cn3)nc2n(C2CCCC2)c1=O [palbociclib] | 0.494 |
| O=C(c1cc(Cc2n[nH]c(=O)c3ccccc23)ccc1F)N1CCN(C(=O)C2CC2)CC1 [olaparib] | 0.704 |

Same assay, conditions: 100 µM; days in culture: 243

| Structure (SMILES) | CTG-3D luminescence at 96 h |
| --- | --- |
| CCOc1ccn(-c2ccc(F)cc2)c(=O)c1C(=O)Nc1ccc(Oc2ccnc(N)c2Cl)c(F)c1 [ASLAN002] | 1.7 |
| C[C@@H](Nc1cc(F)cc(F)c1)c1cc(C(=O)N(C)C)cc2c(=O)cc(N3CCOCC3)oc12 [AZD-8186] | 0.468 |
| COc1cccc2c1C(=O)c1c(O)c3c(c(O)c1C2=O)C[C@@](O)(C(=O)CO)C[C@@H]3O[C@H]1C[C@H](N)[C@@H](O)[C@H](C)O1 [epirubicin] | -0.006 |
| CC(=O)c1c(C)c2cnc(Nc3ccc(N4CCNCC4)cn3)nc2n(C2CCCC2)c1=O [palbociclib] | 1.29 |
| O=C(c1cc(Cc2n[nH]c(=O)c3ccccc23)ccc1F)N1CCN(C(=O)C2CC2)CC1 [olaparib] | 1.2 |

Same assay, conditions: 100 µM; days in culture: 256

| Structure (SMILES) | CTG-3D luminescence at 96 h |
| --- | --- |
| CCOc1ccn(-c2ccc(F)cc2)c(=O)c1C(=O)Nc1ccc(Oc2ccnc(N)c2Cl)c(F)c1 [ASLAN002] | 1.29 |
| C[C@@H](Nc1cc(F)cc(F)c1)c1cc(C(=O)N(C)C)cc2c(=O)cc(N3CCOCC3)oc12 [AZD-8186] | 0.409 |
| COc1cccc2c1C(=O)c1c(O)c3c(c(O)c1C2=O)C[C@@](O)(C(=O)CO)C[C@@H]3O[C@H]1C[C@H](N)[C@@H](O)[C@H](C)O1 [epirubicin] | -0.0077 |
| CC(=O)c1c(C)c2cnc(Nc3ccc(N4CCNCC4)cn3)nc2n(C2CCCC2)c1=O [palbociclib] | 0.605 |
| O=C(c1cc(Cc2n[nH]c(=O)c3ccccc23)ccc1F)N1CCN(C(=O)C2CC2)CC1 [olaparib] | 1.08 |

Same assay, conditions: 100 µM; days in culture: 284

| Structure (SMILES) | CTG-3D luminescence at 96 h |
| --- | --- |
| CCOc1ccn(-c2ccc(F)cc2)c(=O)c1C(=O)Nc1ccc(Oc2ccnc(N)c2Cl)c(F)c1 [ASLAN002] | 1.4 |
| C[C@@H](Nc1cc(F)cc(F)c1)c1cc(C(=O)N(C)C)cc2c(=O)cc(N3CCOCC3)oc12 [AZD-8186] | 0.535 |
| COc1cccc2c1C(=O)c1c(O)c3c(c(O)c1C2=O)C[C@@](O)(C(=O)CO)C[C@@H]3O[C@H]1C[C@H](N)[C@@H](O)[C@H](C)O1 [epirubicin] | -0.00241 |
| CC(=O)c1c(C)c2cnc(Nc3ccc(N4CCNCC4)cn3)nc2n(C2CCCC2)c1=O [palbociclib] | 0.731 |
| O=C(c1cc(Cc2n[nH]c(=O)c3ccccc23)ccc1F)N1CCN(C(=O)C2CC2)CC1 [olaparib] | 0.15 |

Same assay, conditions: 625 fM; days in culture: 214

| Structure (SMILES) | CTG-3D luminescence at 96 h |
| --- | --- |
| CCOc1ccn(-c2ccc(F)cc2)c(=O)c1C(=O)Nc1ccc(Oc2ccnc(N)c2Cl)c(F)c1 [ASLAN002] | 2.47 |
| C[C@@H](Nc1cc(F)cc(F)c1)c1cc(C(=O)N(C)C)cc2c(=O)cc(N3CCOCC3)oc12 [AZD-8186] | 3 |
| COc1cccc2c1C(=O)c1c(O)c3c(c(O)c1C2=O)C[C@@](O)(C(=O)CO)C[C@@H]3O[C@H]1C[C@H](N)[C@@H](O)[C@H](C)O1 [epirubicin] | 5.03 |
| CC(=O)c1c(C)c2cnc(Nc3ccc(N4CCNCC4)cn3)nc2n(C2CCCC2)c1=O [palbociclib] | 1.78 |
| O=C(c1cc(Cc2n[nH]c(=O)c3ccccc23)ccc1F)N1CCN(C(=O)C2CC2)CC1 [olaparib] | 2.64 |

Same assay, conditions: 625 fM; days in culture: 243

| Structure (SMILES) | CTG-3D luminescence at 96 h |
| --- | --- |
| CCOc1ccn(-c2ccc(F)cc2)c(=O)c1C(=O)Nc1ccc(Oc2ccnc(N)c2Cl)c(F)c1 [ASLAN002] | 2.43 |
| C[C@@H](Nc1cc(F)cc(F)c1)c1cc(C(=O)N(C)C)cc2c(=O)cc(N3CCOCC3)oc12 [AZD-8186] | 2.52 |
| COc1cccc2c1C(=O)c1c(O)c3c(c(O)c1C2=O)C[C@@](O)(C(=O)CO)C[C@@H]3O[C@H]1C[C@H](N)[C@@H](O)[C@H](C)O1 [epirubicin] | 2.23 |
| CC(=O)c1c(C)c2cnc(Nc3ccc(N4CCNCC4)cn3)nc2n(C2CCCC2)c1=O [palbociclib] | 3.76 |
| O=C(c1cc(Cc2n[nH]c(=O)c3ccccc23)ccc1F)N1CCN(C(=O)C2CC2)CC1 [olaparib] | 2.06 |

Same assay, conditions: 625 fM; days in culture: 256

| Structure (SMILES) | CTG-3D luminescence at 96 h |
| --- | --- |
| CCOc1ccn(-c2ccc(F)cc2)c(=O)c1C(=O)Nc1ccc(Oc2ccnc(N)c2Cl)c(F)c1 [ASLAN002] | 2.4 |
| C[C@@H](Nc1cc(F)cc(F)c1)c1cc(C(=O)N(C)C)cc2c(=O)cc(N3CCOCC3)oc12 [AZD-8186] | 2.45 |
| COc1cccc2c1C(=O)c1c(O)c3c(c(O)c1C2=O)C[C@@](O)(C(=O)CO)C[C@@H]3O[C@H]1C[C@H](N)[C@@H](O)[C@H](C)O1 [epirubicin] | 2.4 |
| CC(=O)c1c(C)c2cnc(Nc3ccc(N4CCNCC4)cn3)nc2n(C2CCCC2)c1=O [palbociclib] | 2.46 |
| O=C(c1cc(Cc2n[nH]c(=O)c3ccccc23)ccc1F)N1CCN(C(=O)C2CC2)CC1 [olaparib] | 2.1 |

Same assay, conditions: 625 fM; days in culture: 284

| Structure (SMILES) | CTG-3D luminescence at 96 h |
| --- | --- |
| CCOc1ccn(-c2ccc(F)cc2)c(=O)c1C(=O)Nc1ccc(Oc2ccnc(N)c2Cl)c(F)c1 [ASLAN002] | 2.81 |
| C[C@@H](Nc1cc(F)cc(F)c1)c1cc(C(=O)N(C)C)cc2c(=O)cc(N3CCOCC3)oc12 [AZD-8186] | 2.65 |
| COc1cccc2c1C(=O)c1c(O)c3c(c(O)c1C2=O)C[C@@](O)(C(=O)CO)C[C@@H]3O[C@H]1C[C@H](N)[C@@H](O)[C@H](C)O1 [epirubicin] | 3.07 |
| CC(=O)c1c(C)c2cnc(Nc3ccc(N4CCNCC4)cn3)nc2n(C2CCCC2)c1=O [palbociclib] | 4.06 |
| O=C(c1cc(Cc2n[nH]c(=O)c3ccccc23)ccc1F)N1CCN(C(=O)C2CC2)CC1 [olaparib] | 3 |
